Patent publication US9499553B2 (CHUGAI SEIYAKU KABUSHIKI KAISHA, priority 2013, dated 2016)

target: T1, human NaPi-IIb (Homo sapiens, UniProt O95436); assay: Inhibitory effect on 33PO4 uptake into human NaPi-IIb-expressing CHO cells; assay type: cell-based; settings: read-out: IC50
T1 construct: expressed in transfected cells
T1 sequence (O95436 1-690): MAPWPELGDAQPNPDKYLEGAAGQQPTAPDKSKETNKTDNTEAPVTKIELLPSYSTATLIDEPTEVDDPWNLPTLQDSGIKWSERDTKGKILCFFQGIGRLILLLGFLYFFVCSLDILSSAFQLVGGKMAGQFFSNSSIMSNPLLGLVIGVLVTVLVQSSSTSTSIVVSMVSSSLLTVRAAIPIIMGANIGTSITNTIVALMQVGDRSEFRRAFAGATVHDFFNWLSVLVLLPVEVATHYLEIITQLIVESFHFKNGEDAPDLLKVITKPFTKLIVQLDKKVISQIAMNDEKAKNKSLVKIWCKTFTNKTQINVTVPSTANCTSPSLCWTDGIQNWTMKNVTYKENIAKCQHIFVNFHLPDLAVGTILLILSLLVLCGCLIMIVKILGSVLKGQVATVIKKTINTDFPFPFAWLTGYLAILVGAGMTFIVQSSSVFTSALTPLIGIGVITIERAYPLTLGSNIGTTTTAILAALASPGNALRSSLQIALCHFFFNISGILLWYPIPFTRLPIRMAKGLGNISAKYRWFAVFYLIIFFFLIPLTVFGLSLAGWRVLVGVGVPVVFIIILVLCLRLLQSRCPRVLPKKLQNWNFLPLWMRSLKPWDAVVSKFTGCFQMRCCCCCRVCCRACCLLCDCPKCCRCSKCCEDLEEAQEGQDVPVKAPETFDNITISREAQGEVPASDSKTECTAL
Method in brief: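 Stable human NaPi-IIb CHO line (G418-selected), plated and cultured overnight; ³³PO4 added in buffer A and uptake run at room temperature. Cells washed with ice-cold buffer A, then uptake counted by liquid scintillation.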

Compound	IC50 [µM]
C[C@]12CCCN1N(Cc1ccccc1Cl)C(=O)C(C(=O)Nc1cc(F)c(Br)c(F)c1)=C2O [Example 219]	4.2
C[C@]12CCCN1N(Cc1cccc(C#N)c1)C(=O)C(C(=O)Nc1cc(F)c(Br)c(F)c1)=C2O [Example 220]	12.2
C[C@]12CCCN1N(Cc1cccc(Cl)c1)C(=O)C(C(=O)Nc1cc(F)c(Br)c(F)c1)=C2O [Example 221]	6.6
C[C@]12CCCN1N(Cc1ccc(C#N)cc1)C(=O)C(C(=O)Nc1cc(F)c(Br)c(F)c1)=C2O [Example 222]	17.6
C[C@]12CCCN1N(Cc1ccc(Cl)cc1)C(=O)C(C(=O)Nc1cc(F)c(Br)c(F)c1)=C2O [Example 223]	17.9
C[C@]12CCCN1N(Cc1ccc(F)c(Br)c1)C(=O)C(C(=O)Nc1cc(F)c(Br)c(F)c1)=C2O [Example 224]	7.2
C[C@]12CCCN1N(CCCC(F)(F)F)C(=O)C(C(=O)Nc1ccc(C(F)(F)F)cc1-c1cc(C(F)(F)F)ncn1)=C2O [Example 234]	9.4
CCOC(=O)CCCCCCN1C(=O)C(C(=O)Nc2ccc(C(F)(F)F)cc2-c2ccc(C(F)(F)F)nc2)=C(O)[C@@]2(C)CCCN12 [Example 235, Ethyl 7-[(4aR)-4-hydroxy-4a-methyl-2-oxo-3-[[4-(trifluoromethyl)-2-[6-(trifluoromethyl)pyridin-3-yl]phenyl]carbamoyl]-6,7-dihydro-5H-pyrrolo[1,2-b]pyridazin-1-yl]heptanoate]	4.8
COCCOCCOCCCCCCCCN1C(=O)C(C(=O)Nc2ccc(C(F)(F)F)cc2-c2cc(C(F)(F)F)ncn2)=C(O)[C@@]2(C)CCCN12 [Example 236]	24.7
CN1[C@@H](C(C)(C)C)C(O)=C(C(=O)Nc2ccc(Cl)cc2-c2cc(C(F)(F)F)ncn2)C(=O)N1Cc1cccc(F)c1F [Example 237]	12.8
CN1[C@@H](C(C)(C)C)C(O)=C(C(=O)Nc2ccc(C(F)(F)F)cc2-c2ccc(C(F)(F)F)nc2)C(=O)N1Cc1cccc(F)c1F [Example 238]	8.5
CN1[C@@H](C(C)(C)C)C(O)=C(C(=O)Nc2ccc(Cl)cc2-c2ccc(C(F)(F)F)nc2)C(=O)N1Cc1cccc(F)c1F [Example 239]	8.5
CN1[C@@H](C(C)(C)C)C(O)=C(C(=O)Nc2cc(F)c(Br)c(F)c2)C(=O)N1Cc1cccc(F)c1F [Example 240]	9.1
Cc1nc(NC(=O)C2=C(O)[C@H](C(C)(C)C)N(C)N(Cc3cccc(F)c3F)C2=O)ccc1Br [Example 241]	16.5
CN1[C@@H](C(C)(C)C)C(O)=C(C(=O)Nc2ccc(Br)c(C(F)(F)F)n2)C(=O)N1Cc1cccc(F)c1F [Example 242]	7.8
CN1[C@@H](C(C)(C)C)C(O)=C(C(=O)Nc2ccc(Br)c(C(F)(F)F)c2)C(=O)N1Cc1cccc(F)c1F [Example 243]	7.4
CN1[C@@H](C(C)(C)C)C(O)=C(C(=O)Nc2cccc(C(F)(F)F)n2)C(=O)N1Cc1cccc(F)c1F [Example 244]	7.3
CCN1[C@@H](C(C)(C)C)C(O)=C(C(=O)Nc2ccc(Cl)cc2-c2ccc(C(F)(F)F)nc2)C(=O)N1Cc1cccc(F)c1F [Example 245]	7.7
CCN1[C@@H](C(C)(C)C)C(O)=C(C(=O)Nc2cc(F)c(Br)c(F)c2)C(=O)N1Cc1cccc(F)c1F [Example 246]	8.6
CC(C)(C)[C@H]1C(O)=C(C(=O)Nc2ccc(Cl)cc2-c2ccc(C(F)(F)F)nc2)C(=O)N(Cc2cccc(F)c2F)N1CC(F)(F)F [Example 247]	8.2
CC(C)(C)[C@H]1C(O)=C(C(=O)Nc2cc(F)c(Br)c(F)c2)C(=O)N(Cc2cccc(F)c2F)N1CC(F)(F)F [Example 248]	17.6
CC(C)[C@@H]1C(O)=C(C(=O)Nc2ccc(C(F)(F)F)cc2-c2cc(C(F)(F)F)ncn2)C(=O)N(Cc2cccc(F)c2F)N1C [Example 249]	9.8
CC(C)[C@@H]1C(O)=C(C(=O)Nc2ccc(Cl)cc2-c2cc(C(F)(F)F)ncn2)C(=O)N(Cc2cccc(F)c2F)N1C [Example 250]	17.9
CC(C)[C@@H]1C(O)=C(C(=O)Nc2ccc(Cl)cc2-c2ccc(C(F)(F)F)nc2)C(=O)N(Cc2cccc(F)c2F)N1C [Example 251]	7.6
CC(C)[C@H]1C(O)=C(C(=O)Nc2ccc(C(F)(F)F)cc2-c2cc(C(F)(F)F)ncn2)C(=O)N(Cc2cccc(F)c2F)N1C [Example 252]	9.5
CC(C)[C@H]1C(O)=C(C(=O)Nc2ccc(C(F)(F)F)cc2-c2ccc(C(F)(F)F)nc2)C(=O)N(Cc2cccc(F)c2F)N1C [Example 253]	4.4

Compound	IC50 [µM]
CC(C)[C@H]1C(O)=C(C(=O)Nc2cc(F)c(Br)c(F)c2)C(=O)N(Cc2cccc(F)c2F)N1C [Example 254]	9.7
CN1N(Cc2cccc(F)c2F)C(=O)C(C(=O)Nc2ccc(Cl)cc2-c2cc(C(F)(F)F)ncn2)=C(O)C12CCC2 [Example 255]	9.8
CN1N(Cc2cccc(F)c2F)C(=O)C(C(=O)Nc2ccc(Cl)cc2-c2ccc(C(F)(F)F)nc2)=C(O)C12CCC2 [Example 256]	4.4
CN1N(Cc2cccc(F)c2F)C(=O)C(C(=O)Nc2cc(F)c(Br)c(F)c2)=C(O)C12CCC2 [Example 257]	6
CN1N(Cc2cccc(F)c2F)C(=O)C(C(=O)Nc2ccc(Br)c(C(F)(F)F)n2)=C(O)C12CCC2 [Example 258]	2.7
Cc1nc(NC(=O)C2=C(O)C3(CCC3)N(C)N(Cc3cccc(F)c3F)C2=O)ccc1Br [Example 259]	10
CN1N(Cc2cccc(F)c2F)C(=O)C(C(=O)Nc2ccc(C(F)(F)F)cc2-c2cc(C(F)(F)F)ncn2)=C(O)C12CCCC2 [Example 260]	6.4
CN1N(Cc2cccc(F)c2F)C(=O)C(C(=O)Nc2ccc(Cl)cc2-c2cc(C(F)(F)F)ncn2)=C(O)C12CCCC2 [Example 261]	7.7
Cc1nc(NC(=O)C2=C(O)C3(CCCC3)N(C)N(Cc3cccc(F)c3F)C2=O)ccc1Br [Example 262]	9.9
CN1N(Cc2cccc(F)c2F)C(=O)C(C(=O)Nc2ccc(Br)c(C(F)(F)F)n2)=C(O)C12CCCC2 [Example 263]	3
CN1[C@@H](C(C)(C)C)C(O)=C(C(=O)Nc2ccc(Cl)cc2-c2cc(C(F)(F)F)ncn2)C(=O)N1Cc1ccc(OCCN2CCOCC2)c(F)c1F [Example 265, (3S)-3-tert-Butyl-N-[4-chloro-2-[6-(trifluoromethyl)pyrimidin-4-yl]phenyl]-1-[[2,3-difluoro-4-(2-morpholin-4-ylethoxy)phenyl]methyl]-4-hydroxy-2-methyl-6-oxo-3H-pyridazine-5-carboxamide]	13.3
CN1[C@@H](C(C)(C)C)C(O)=C(C(=O)Nc2ccc(C(F)(F)F)cc2-c2ccc(C(F)(F)F)nc2)C(=O)N1Cc1ccc(OCCN2CCOCC2)c(F)c1F [Example 266]	11.6
CSc1ccc(-c2cc(C(F)(F)F)ccc2NC(=O)C2=C(O)[C@H](C(C)(C)C)N(C)N(Cc3ccc(OCCN4CCOCC4)c(F)c3F)C2=O)cn1 [Example 268]	7.4
CN1[C@@H](C(C)(C)C)C(O)=C(C(=O)Nc2ccc(C(F)(F)F)cc2-c2ccnc(C#N)c2)C(=O)N1Cc1ccc(OCCN2CCOCC2)c(F)c1F [Example 271]	17.3
CN1[C@@H](C(C)(C)C)C(O)=C(C(=O)Nc2ccc(Cl)cc2-c2cc(C#N)ncn2)C(=O)N1Cc1ccc(OCCN2CCOCC2)c(F)c1F [Example 272]	19.5
CN1[C@@H](C(C)(C)C)C(O)=C(C(=O)Nc2cnc(C(F)(F)F)nc2-c2ccc(C(F)(F)F)nc2)C(=O)N1Cc1ccc(OCCN2CCOCC2)c(F)c1F [Example 273]	13.2
Cc1c(C#N)ncnc1-c1cc(Cl)ccc1NC(=O)C1=C(O)[C@H](C(C)(C)C)N(C)N(Cc2ccc(OCCN3CCOCC3)c(F)c2F)C1=O [Example 274]	17
Cc1c(Cl)ncnc1-c1cc(Cl)ccc1NC(=O)C1=C(O)[C@H](C(C)(C)C)N(C)N(Cc2ccc(OCCN3CCOCC3)c(F)c2F)C1=O [Example 275]	16.8
Cc1c(Cl)ncnc1-c1cc(C(F)(F)F)ccc1NC(=O)C1=C(O)[C@H](C(C)(C)C)N(C)N(Cc2ccc(OCCN3CCOCC3)c(F)c2F)C1=O [Example 276]	15.8
CN1[C@@H](C(C)(C)C)C(O)=C(C(=O)Nc2ccc(C(F)(F)F)cc2C(F)(F)F)C(=O)N1Cc1ccc(OCCN2CCOCC2)c(F)c1F [Example 277]	17.8
Cc1c(-c2cc(C(F)(F)F)ccc2NC(=O)C2=C(O)[C@H](C(C)(C)C)N(C)N(Cc3ccc(OCCN4CCOCC4)c(F)c3F)C2=O)ncnc1C(F)(F)F [Example 278]	6.6
CC(C)[C@H]1C(O)=C(C(=O)Nc2ccc(C(F)(F)F)cc2-c2ccc(C(F)(F)F)nc2)C(=O)N(Cc2ccc(OCCN3CCOCC3)c(F)c2F)N1C [Example 280]	11.9
CC(C)[C@H]1C(O)=C(C(=O)Nc2ccc(Cl)cc2-c2ccc(C(F)(F)F)nc2)C(=O)N(Cc2ccc(OCCN3CCOCC3)c(F)c2F)N1C [Example 281]	18.8
CN1N(Cc2ccc(OCCN3CCOCC3)c(F)c2F)C(=O)C(C(=O)Nc2ccc(C(F)(F)F)cc2-c2ccc(C(F)(F)F)nc2)=C(O)C12CCC2 [Example 282]	11.1
Cc1c(C#N)ncnc1-c1cc(C(F)(F)F)ccc1NC(=O)C1=C(O)C2(CCC2)N(C)N(Cc2ccc(OCCN3CCOCC3)c(F)c2F)C1=O [Example 283]	17.7
